{"source": "patent US20020168365A1", "about": "“Method for modulating granzyme B uptake and for identifying modulators thereof” (priority 2000, published 2002)", "key": {"[1]": {"test_system": "breast carcinoma cell lines (T47-D, MDA-MB-231, SK-BR-3, MCF-7)", "assay": "grB/AD-mediated apoptosis (TUNEL, annexin V) in carcinoma cell lines", "assay_type": "cell-based, human", "procedure": "Cells were resuspended at 10^6 cells/ml in 0.1% BSA/DMEM. Adenovirus (10 PFU/cell) and granzyme B (grB) were added directly to the cell suspension. Cells were incubated at 37° C. for 3 h. For staurosporine killing, cells were resuspended at 10^6 cells/ml in their normal growth medium and staurosporine (2.5 μM) was added directly to the cell suspension. Cells were incubated at 37° C. for 2, 4 and 8 h. DNA fragmentation was monitored by flow cytometric analysis via the terminal deoxynucleotidyltransferase-mediated dUTP-biotin nick end labeling (TUNEL) method. Flow cytometric analysis was performed on a Becton Dickinson FACScanθ flow cytometer equipped with an argon-ion laser with 15 mW of excitation at 488 nm. Emission wavelengths were detected through the FL1 channel. Data were acquired on 10,000 cells per sample with light scatter signals at linear gain and fluorescence signals at logarithmic gain. Percent specific TUNEL positive cells was calculated as follows: [(% positive labeling cells with grB and AD−% positive labeling cells without grB and AD)/(AD−% positive labeling cells without grB and AD)]×100. Phosphatidylserine externalization was monitored using the ApoAlertθ annexin V apoptosis kit (Clontech) according to the protocol provided by the manufacturer. Flow cytometric analysis was performed on a Becton Dickinson FACScanθ flow cytometer equipped with an argon-ion laser with 15 mW of excitation at 488 nm. Emission wavelengths were detected through the FL1 channel. Data were acquired on 10,000 cells per sample with light scatter signals at linear gain and fluorescence signals at logarithmic gain. Percent specific Annexin V positive cells was calculated as follows: [(% positive labeling cells with grB and AD−% positive labeling cells without grB and AD)/(AD−% positive labeling cells without grB and AD)]×100."}, "CI-MPR^+ cells": {"test_system": "CI-MPR^+ cells", "assay": "TUNEL and annexin V apoptosis assays with grB and AD", "assay_type": "cell-based, murine L cells transfected with human CI-MPR", "procedure": "(§1) For the in vitro killing assays, 10 pfu per cell of replication-deficient adenovirus (AD) were added subsequent to grB addition. Analysis of DNA fragmentation by TUNEL analysis has been described previously (Heibein et al., 1999). TUNEL materials (Roche Diagnostics) were used as per the manufacturer's instructions. Phosphatidylserine externalization was measured as previously described (Heibein et al., 1999) using annexin V-FITC (PharMingen). Percent specific TUNEL/annexin V positive cells was calculated as: [(% positive labeling cells with grB and AD-% positive labeling cells without grB and AD)/(100-% positive labeling cells without grB and AD)]×100."}, "[2]": {"test_system": "L cells and the MPR-transfected L cell lines", "assay": "GrB binding assay (flow cytometry)", "set-up": "species or system murine", "conditions": "grB treated with alkaline phosphatase in the absence of phosphate", "procedure": "(§2) Cells (1-2×10^5) were washed twice and resuspended in buffer before the addition of grB-biotin or -OG in a final volume of 20 μl for a 30-60 min incubation and washed again twice. In the case of grB-biotin, cells were then incubated with streptavidin-cychrome for 20 min and washed twice. Unless otherwise indicated, ˜25 ng grB-biotin or -OG was used to label cells. All steps of the assay were carried out at 4° C. to prevent intracellular uptake of grB. PBS/0.1% BSA buffer was used throughout the procedure. In some cases, results are presented as the relative MFI, which represents the MFI of the grB-labeled population minus the MFI of the unlabeled population.\n(§3) GrB was treated for 1 hr at 37° C. in a phosphate-free (saline) or a high-phosphate (64.5 mM Na2HPO4.7H2O, 21 mM KH2PO4) buffer with calf intestinal alkaline phosphatase (1-10 U), 20 nM of the 37 kDa catalytic subunit of recombinant protein phosphatase-1 (Bagu et al, 1997), or with vehicle control. Cells were then incubated with the treated grB at 4° C. for 30-60 min. For the TUNEL or annexin V assays, cells were then washed twice before incubation at 37° C. with AD."}, "Jurkat cells": {"test_system": "Jurkat cells", "assay": "GrB binding assay (flow cytometry, labeled grB at 4° C.)", "set-up": "species or system human", "procedure": "as §2, §3\nM6P and various other monosaccharides at different concentrations were added to cells for 15 min at 4° C. before the addition of labeled grB, or at room temperature before the addition of grB and AD.\nGrB was incubated with sCI-MPR at various concentrations in PBS/0.1% BSA for 30 min at 4° C. Subsequently, cells were incubated with grB/sCI-MPR for 30-60 min at 4° C. and washed twice, before analysis of binding, or before the addition of AD for TUNEL and annexin V analysis."}, "MPR^− cells": {"test_system": "MPR^− cells", "assay": "TUNEL and annexin V apoptosis assays with grB and AD", "assay_type": "cell-based, murine", "conditions": "100 ng/ml grB and AD, 3 hr", "procedure": "as §1"}, "wild-type L cells": {"test_system": "wild-type L cells", "assay": "TUNEL and annexin V apoptosis assays with grB and AD", "assay_type": "cell-based, murine", "procedure": "as §1"}, "[3]": {"assay": "grB enzymatic activity (ASPase assay)", "assay_type": "biochemical, human", "from_the_text": "Human grB was purified from the cytolytic granules of YT-Indy cells as described previously (Caputo et al., 1999). GrB was derivatized with sulfo-NHS-biotin (Pierce) or OG 488 (Molecular Probes) as per the manufacturer's directions for labeling protein. Derivatized grB was separated from unbound probe by passing the material through a Sephadex G-25 column (HiTrapθ Desalting column, Pharmacia Biotech) with saline or phosphate-buffered saline (PBS) as the buffer. Typically the concentration of unlabeled grB was ˜50 μg/ml, whereas the estimated concentration of derivatized material was ˜5 μg/ml. GrB was assayed for enzymatic activity using an ASPase assay as previously described (Caputo et al., 1993)."}, "[4]": {"conditions": "all the carcinoma cell lines, 3 hr"}, "[5]": {"conditions": "at later times (data not shown)"}, "[6]": {"conditions": "at the time-point of the assay (3 hr)"}, "[7]": {"conditions": "grB treated with catalytic subunit of protein phosphatase-1 (data not shown)"}}, "data": [{"substance": "grB: Human serine proteinase granzyme B purified from the cytolytic granules of YT-Indy cells", "values": [{"measurement": "DNA fragmentation or phosphatidylserine externalization", "setting": "[1]; MCF-7 cells, granzyme B and adenovirus", "value": "no DNA-fragmentation or phosphatidylserine externalization could be detected"}, {"measurement": "phosphatidylserine exposure or DNA fragmentation", "setting": "[1]; T47-D cells, granzyme B and adenovirus", "value": "unable to detect any phosphatidylserine exposure or DNA fragmentation"}, {"measurement": "annexin V binding after grB and AD", "setting": "[1]; [4]", "value": "did not bind annexin V"}, {"measurement": "grB and AD-mediated DNA fragmentation", "setting": "[1]; [4]", "value": "resistant"}, {"measurement": "TUNEL and annexin V positive cells", "setting": "CI-MPR^+ cells; [5]", "value": "~100", "unit": "%"}, {"measurement": "TUNEL and annexin V positive cells", "setting": "CI-MPR^+ cells; [6]", "value": "about 30%"}, {"measurement": "binding to L cells and the MPR-transfected L cell lines", "setting": "[2]", "value": "dramatic decrease in binding"}, {"measurement": "ability to bind Jurkat cells", "setting": "Jurkat cells; [7]", "value": "did not lose"}, {"measurement": "ability to bind Jurkat cells", "setting": "Jurkat cells; grB-biotin treated with alkaline phosphatase in phosphate-free buffer", "value": "marked reduction"}, {"measurement": "grB and AD-induced DNA fragmentation", "setting": "MPR^− cells", "value": "relatively resistant"}, {"measurement": "TUNEL and annexin V positive cells", "setting": "wild-type L cells; [5]", "value": "~100", "unit": "%"}, {"measurement": "TUNEL and annexin V positive cells", "setting": "wild-type L cells; [6]", "value": "about 30%"}, {"measurement": "enzymatic activity of grB", "setting": "[3]; [7]", "value": "did not lose"}, {"measurement": "enzymatic activity of grB", "setting": "[3]; grB treated with phosphatase in a phosphate-free buffer", "value": "no effect"}]}]}
